EP4610269A1, “UROKINASE PLASMINOGEN ACTIVATOR SURFACE RECEPTOR (UPAR) LIGANDS FOR DIAGNOSTIC OR THERAPEUTIC USE” (3B Pharmaceuticals GmbH, priority 2024, dated 2025)
Where a SMILES comes first, the peptide text is derived from it. Bridges are numbered along the chain shown (N, C = ends). [ ]: non-standard residue; d: D form. The star is where a group is joined. DOTA = O=C(O)CN1CCN(CC(=O)O)CCN(CC(=O)*)CCN(CC(=O)O)CC1; Dopa = N[C@@H](Cc1ccc(O)c(O)c1)C(=O)O; Hyp = O=C(O)[C@@H]1C[C@@H](O)CN1; NMeF = CN[C@@H](Cc1ccccc1)C(=O)O; Gly(cBu) = N[C@H](C(=O)O)C1CCC1; NMeQ = CN[C@@H](CCC(N)=O)C(=O)O; Pentanoyl(4-Me) = CC(C)CCC(=O)*; Cit = NC(=O)NCCC[C@H](N)C(=O)O; Pen = CC(C)(S)[C@H](N)C(=O)O; Nle = CCCC[C@H](N)C(=O)O; Nva = CCC[C@H](N)C(=O)O; Pentanoyl = CCCCC(=O)*

Assays:
[1] = biological target: T1, uPAR-expressing HEC-265 human endometrial adenocarcinoma cells (Homo sapiens, UniProt Q03405); test: Competitive FACS binding assay; conditions: pIC50 category of FACS binding
T1 construct: Cell surface uPAR-expressing HEC-265 human endometrial adenocarcinoma cells; host or cells: HEC-265
T1 sequence (Q03405 23-335): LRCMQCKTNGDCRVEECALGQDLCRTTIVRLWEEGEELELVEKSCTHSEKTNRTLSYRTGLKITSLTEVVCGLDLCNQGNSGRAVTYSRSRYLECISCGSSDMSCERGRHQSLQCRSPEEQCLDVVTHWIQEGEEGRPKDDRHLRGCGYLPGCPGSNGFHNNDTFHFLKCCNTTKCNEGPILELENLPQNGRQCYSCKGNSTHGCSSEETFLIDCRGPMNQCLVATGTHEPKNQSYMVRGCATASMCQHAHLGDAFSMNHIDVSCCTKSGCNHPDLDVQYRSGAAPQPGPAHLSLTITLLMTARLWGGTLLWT
Method in brief: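 HEC-265 cells incubated 1 h at 4 °C with 10 nM biotinylated uPAR peptide tracer plus increasing test compound, then stained with APC-streptavidin on ice. Median APC fluorescence by flow cytometry; 4PL fit gives pIC50.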

human uPAR (uPAR-Fc) = biological target: T2, human uPAR (uPAR-Fc) (Homo sapiens, UniProt Q03405); test: Surface plasmon resonance (SPR) assay, single cycle kinetics; assay type: binding; conditions: pKD category for uPAR SPR activity assay; uPAR-Fc on Protein A-Chip, single cycle kinetics, 25°C; read-out: pKD CAT (converted)
T2 construct: comprising amino acids Leu23-Arg303 according to UniProt entry Q03405.1; purchased R&D Systems 10378-UK-100
T2 sequence (Q03405 23-303): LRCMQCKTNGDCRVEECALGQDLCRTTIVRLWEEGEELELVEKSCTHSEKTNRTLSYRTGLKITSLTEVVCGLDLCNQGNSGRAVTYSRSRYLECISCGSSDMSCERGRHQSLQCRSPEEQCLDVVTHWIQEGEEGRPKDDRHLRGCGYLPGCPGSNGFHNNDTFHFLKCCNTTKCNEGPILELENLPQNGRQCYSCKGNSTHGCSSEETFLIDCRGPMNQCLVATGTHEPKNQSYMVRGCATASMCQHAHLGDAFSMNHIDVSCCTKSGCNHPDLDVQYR
Method in brief: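 uPAR-Fc (Leu23-Arg303 extracellular domains, human IgG1 Fc) captured on Protein A chip to ~2000 RU; single-cycle kinetics at 25°C in HEPES running buffer pH 7.4 with 0.1% DMSO. KD from double-referenced sensorgrams fitted to 1:1 Langmuir model, reported as pKD.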

SMILES | IC50 [1] [nM] | Kd (human uPAR (uPAR-Fc)) [nM]
CCCCC(=O)N[C@@H]1C(=O)N[C@@H](CCCNC(N)=O)C(=O)N[C@@H](CCC(N)=O)C(=O)N[C@@H](Cc2ccc(O)cc2)C(=O)N[C@@H](Cc2ccccc2)C(=O)N2CCC[C@H]2C(=O)N2C[C@H](O)C[C@H]2C(=O)N[C@@H]([C@@H](C)CC)C(=O)N[C@@H](CCC)C(=O)N[C@H](C(N)=O)CSSC1(C)C [UPAR-397, Pent-[Pen-Cit-Gln-Tyr-Phe-Pro-Hyp-Ile-Nva-Cys]-NH2] (Pentanoyl-[Pen][Cit]QYFP[Hyp]I[Nva]C-NH2; disulfide 1-10) | ≤ 10 | < 1.58
CCCCC(=O)N[C@H]1CSSC[C@@H](C(N)=O)NC(=O)[C@H](CCC)NC(=O)[C@H]([C@@H](C)CC)NC(=O)[C@@H]2C[C@@H](O)CN2C(=O)[C@@H]2CCCN2C(=O)[C@H](Cc2ccccc2)N(C)C(=O)[C@H](Cc2ccc(O)cc2)NC(=O)[C@H](CCCCNC(=O)CN2CCN(CC(=O)O)CCN(CC(=O)O)CCN(CC(=O)O)CC2)NC(=O)[C@H](CCCNC(N)=O)NC1=O [UPAR-398, Pent-[Cys-Cit-Lys(DOTA)-Tyr-Nmf-Pro-Hyp-Ile-Nva-Cys]-NH2] (Pentanoyl-C[Cit]K(DOTA)Y[NMeF]P[Hyp]I[Nva]C-NH2; disulfide 1-10) | ≥ 126 | > 100
CCCCC(=O)N[C@H]1CSSC[C@@H](C(N)=O)NC(=O)[C@H](CCC)NC(=O)[C@H]([C@@H](C)CC)NC(=O)[C@@H]2C[C@@H](O)CN2C(=O)[C@@H]2CCCN2C(=O)[C@H](Cc2ccccc2)NC(=O)[C@H](Cc2ccc(O)c(O)c2)NC(=O)[C@H](CCCCNC(=O)CN2CCN(CC(=O)O)CCN(CC(=O)O)CCN(CC(=O)O)CC2)NC(=O)[C@H](CCCNC(N)=O)NC1=O [UPAR-399, Pent-[Cys-Cit-Lys(DOTA)-Dopa-Phe-Pro-Hyp-Ile-Nva-Cys]-NH2] (Pentanoyl-C[Cit]K(DOTA)[Dopa]FP[Hyp]I[Nva]C-NH2; disulfide 1-10) | ≤ 10 | < 1.58
CCCCC(=O)N[C@H]1CSSC[C@@H](C(N)=O)NC(=O)[C@H](CCC)NC(=O)[C@H]([C@@H](C)CC)NC(=O)[C@@H]2C[C@@H](O)CN2C(=O)[C@H](Cc2ccccc2)NC(=O)[C@H](Cc2ccccc2)NC(=O)[C@H](Cc2ccc(O)cc2)NC(=O)[C@H](CCC(N)=O)NC(=O)[C@H](CCCNC(=N)N)NC1=O [UPAR-400, Pent-[Cys-Arg-Gln-Tyr-Phe-Phe-Hyp-Ile-Nva-Cys]-NH2] (Pentanoyl-CRQYFF[Hyp]I[Nva]C-NH2; disulfide 1-10) | ≤ 10 | 1.58 to 10
CCCCC(=O)N[C@H]1CSSC[C@@H](C(N)=O)NC(=O)[C@H](CCC)NC(=O)[C@H]([C@@H](C)CC)NC(=O)[C@@H]2C[C@@H](O)CN2C(=O)[C@@H]2CCCN2C(=O)[C@H](Cc2ccccc2)NC(=O)[C@H](Cc2c[nH]c3ccccc23)NC(=O)[C@H](CCC(N)=O)NC(=O)[C@H](CCCNC(=N)N)NC1=O [UPAR-401, Pent-[Cys-Arg-Gln-Trp-Phe-Pro-Hyp-Ile-Nva-Cys]-NH2] (Pentanoyl-CRQWFP[Hyp]I[Nva]C-NH2; disulfide 1-10) | ≤ 10 | < 1.58
CC[C@H](C)[C@@H]1NC(=O)[C@@H](C)NC(=O)[C@@H]2CCCN2C(=O)[C@H](Cc2ccccc2)NC(=O)[C@H](Cc2ccc(O)cc2)NC(=O)[C@H](CCC(N)=O)NC(=O)[C@H](CCCNC(N)=O)NC(=O)[C@@H](NC(=O)CCC(C)C)CSSC[C@@H](C(N)=O)NC(=O)[C@H](C)NC1=O [UPAR-402, iHex-[Cys-Cit-Gln-Tyr-Phe-Pro-ala-Ile-Ala-Cys]-NH2] ({Pentanoyl(4-Me)}-C[Cit]QYFP[dA]IAC-NH2; disulfide 1-10) | 12.6 to 31.6 | 1.58 to 10
CC[C@H](C)[C@@H]1NC(=O)[C@H]([C@@H](C)CC)NC(=O)[C@@H](C)NC(=O)[C@@H]2CCCN2C(=O)[C@H](Cc2ccccc2)NC(=O)[C@H](Cc2ccc(O)cc2)NC(=O)[C@H](CCC(N)=O)NC(=O)[C@H](CCCNC(N)=O)NC(=O)[C@@H](NC(=O)CCC(C)C)CSSC[C@@H](C(N)=O)NC1=O [UPAR-405, iHex-[Cys-Cit-Gln-Tyr-Phe-Pro-ala-Ile-Ile-Cys]-NH2] ({Pentanoyl(4-Me)}-C[Cit]QYFP[dA]IIC-NH2; disulfide 1-10) | 12.6 to 31.6 | 1.58 to 10
CCCC[C@@H]1NC(=O)[C@H](CCCNC(=N)N)NC(=O)[C@@H](NC(=O)[C@H](CC(C)C)NC(=O)[C@H](CC(=O)O)NC(C)=O)CSSC[C@@H](C(N)=O)NC(=O)[C@H](CC(C)C)NC(=O)[C@H]([C@@H](C)CC)NC(=O)[C@@H](C)NC(=O)[C@@H]2CCCN2C(=O)[C@H](Cc2ccccc2)NC(=O)[C@H](Cc2ccc(O)cc2)NC1=O [UPAR-406, Ac-Asp-Leu-[Cys-Arg-Nle-Tyr-Phe-Pro-ala-Ile-Leu-Cys]-NH2] (Ac-DLCR[Nle]YFP[dA]ILC-NH2; disulfide 3-12) | ≤ 10 | < 1.58
CC[C@H](C)[C@@H]1NC(=O)[C@@H](C)NC(=O)[C@@H]2CCCN2C(=O)[C@H](Cc2ccccc2)NC(=O)[C@H](Cc2ccc(O)cc2)NC(=O)[C@H](CCC(N)=O)N(C)C(=O)[C@H](CCCNC(N)=O)NC(=O)[C@@H](NC(=O)CCC(C)C)CSSC[C@@H](C(N)=O)NC(=O)[C@H](CC(C)C)NC1=O [UPAR-407, iHex-[Cys-Cit-Nmq-Tyr-Phe-Pro-ala-Ile-Leu-Cys]-NH2] ({Pentanoyl(4-Me)}-C[Cit][NMeQ]YFP[dA]ILC-NH2; disulfide 1-10) | ≥ 126 | 10 to 100
CCCCC(=O)N[C@H]1CSSC[C@@H](C(N)=O)NC(=O)[C@H](CCC)NC(=O)[C@H]([C@@H](C)CC)NC(=O)[C@@H]2C[C@@H](O)CN2C(=O)[C@@H]2CCCN2C(=O)[C@H](Cc2ccccc2)NC(=O)[C@H](Cc2ccc(O)cc2)NC(=O)CNC(=O)[C@H](CCCNC(=N)N)NC1=O [UPAR-409, Pent-[Cys-Arg-Gly-Tyr-Phe-Pro-Hyp-Ile-Nva-Cys]-NH2] (Pentanoyl-CRGYFP[Hyp]I[Nva]C-NH2; disulfide 1-10) | ≤ 10 | < 1.58
CC[C@H](C)[C@@H]1NC(=O)[C@@H]2C[C@@H](O)CN2C(=O)[C@@H]2CCCN2C(=O)[C@H](Cc2ccccc2)NC(=O)[C@H](Cc2ccc(O)cc2)NC(=O)[C@H](CC(=O)O)NC(=O)[C@H](CCCNC(N)=O)NC(=O)[C@@H](NC(=O)CCC(C)C)CSSC[C@@H](C(N)=O)NC(=O)[C@H](CC(C)C)NC1=O [UPAR-410, iHex-[Cys-Cit-Asp-Tyr-Phe-Pro-Hyp-Ile-Leu-Cys]-NHz] ({Pentanoyl(4-Me)}-C[Cit]DYFP[Hyp]ILC-NH2; disulfide 1-10) | ≤ 10 | < 1.58
CCCCC(=O)N[C@H]1CSSC[C@@H](C(N)=O)NC(=O)[C@H](C2CCC2)NC(=O)[C@H]([C@@H](C)CC)NC(=O)[C@@H]2C[C@@H](O)CN2C(=O)[C@@H]2CCCN2C(=O)[C@H](Cc2ccccc2)NC(=O)[C@H](Cc2ccc(O)cc2)NC(=O)[C@H](CCC(N)=O)NC(=O)[C@H](CCCNC(=N)N)NC1=O [UPAR-411, Pent-[Cys-Arg-Gln-Tyr-Phe-Pro-Hyp-Ile-Cbg-Cys]-NH2] (Pentanoyl-CRQYFP[Hyp]I[Gly(cBu)]C-NH2; disulfide 1-10) | ≤ 10 | < 1.58
CCCC[C@@H]1NC(=O)[C@H](CCCNC(=N)N)NC(=O)[C@H](NC(=O)[C@H](CC(C)C)NC(=O)[C@H](CC(=O)O)NC(C)=O)CSSC[C@@H](C(N)=O)NC(=O)[C@H](CC(C)C)NC(=O)[C@H]([C@@H](C)CC)NC(=O)[C@H](C)NC(=O)[C@@H]2CCCN2C(=O)[C@H](Cc2ccccc2)NC(=O)[C@H](Cc2ccc(O)cc2)NC1=O [UPAR-412, Ac-Asp-Leu-[cys-Arg-Nle-Tyr-Phe-Pro-Ala-Ile-Leu-Cys]-NH2] (Ac-DL[dC]R[Nle]YFPAILC-NH2; disulfide 3-12) | ≥ 126 | > 100
